For data set [1] the following is noted: mice; cited from earlier work.
For data set [2], the target named is T1, PPAR-α (Homo sapiens, UniProt Q07869).
T1 sequence (Q07869 1-468): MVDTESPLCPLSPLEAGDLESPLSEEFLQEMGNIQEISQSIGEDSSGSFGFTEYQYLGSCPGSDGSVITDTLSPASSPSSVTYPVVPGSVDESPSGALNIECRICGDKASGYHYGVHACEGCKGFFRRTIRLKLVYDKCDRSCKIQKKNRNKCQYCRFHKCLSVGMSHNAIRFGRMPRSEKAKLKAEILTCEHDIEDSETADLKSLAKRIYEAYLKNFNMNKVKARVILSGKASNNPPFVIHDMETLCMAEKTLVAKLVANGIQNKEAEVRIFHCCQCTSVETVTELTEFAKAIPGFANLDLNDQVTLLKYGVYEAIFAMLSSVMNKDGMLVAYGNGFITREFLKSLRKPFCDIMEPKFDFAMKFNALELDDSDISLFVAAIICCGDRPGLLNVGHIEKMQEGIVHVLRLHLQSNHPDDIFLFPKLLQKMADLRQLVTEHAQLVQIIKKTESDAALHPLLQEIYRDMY
Particulars: cited from earlier work.

The conditions of data set [3]: cited from earlier work.
The conditions of data set [4]: rats, oral intake; cited from earlier work.
A short description of data set [5]: Body weights of SHRSP rats treated by gavage for 5 months. It counts as in vivo. As for the experimental part: FIG. 3. Effects of puerarin on the body weights of rats. The rats were fed on a normal chow diet for 5 months starting when they were 4 weeks old. The rats were treated by gavage either with vehicle (normal saline) or puerarin (250 mg/Kg/day in a single dose in normal saline). The data were compared statistically by using two-way ANOVA with n=8 in each group.
Spontaneously hypertensive stroke-prone (SHRSP) male rats were fed on a normal chow diet for 5 months starting when they were 4 weeks old. The rats were treated by gavage either with vehicle (normal saline) or puerarin (250 mg/Kg/day in a single dose in normal saline). Their blood pressures and body weights were monitor everyday for 5 months.

The test system of data set [6] is PPAR-α. The data set can be described thus: Protein immuno-blotting of PPAR-α expression in HepG2 cells. Particulars: puerarin 1-100 μM, 24 hours, Western blotting. It counts as cell-based, human. As for the experimental part: FIG. 2. Expression of PPAR-α in HepG2 cells. Cells were incubated in puerarin (1-100 μM) for 24 hrs. Whole cell lysate were collected and PPAR-α expression was probed using anti-PPAR-α (Santa Cruz, Calif.) in Western blotting. Each lane was loaded with 50 μg protein from cell lysate. Expression of actin was also probed to ensure protein loading.
Cell Cultures HepG2 cells was purchased from American Type Culture Collection (Manassas, Va.). They were maintained in DMEM containing 10% heat-inactivated fetal bovine serum and 1% penicillin/streptomycin in tissue culture dishes incubated in 95% air/5% CO2, at 37° C. The media were changed 2 times per week until the cells were confluent.
Protein immuno-blotting of PPAR-α. HepG2 cells were collected in RIPA buffer (150 mM NaCl, 1% Triton X-100, 1% sodium deoxycholate, 0.1% sodium dodecyl sulfate, 50 mM Tris-HCl, 2 mM EDTA, pH 7.5) with protease inhibitors (Mini-Complete protease inhibitor cocktail tablets (Roche Diagnostics, Mannheim, Germany)] after incubated in puerarin (1-100 μM) for 24 hours. The protein content of the cell lysate was quantified by using a protein assay kit (Bio-Rad Lab, Hercules Calif.). Protein (50 μg) from the whole cell lysate was loaded in each lane of a polyacrylamide (10%) gel, eletrophoresed and blotted to a polyvinylidene difluoride (PVDF) membrane. […]
On the technique in general: A western blot detects proteins with antibodies after separation by electrophoresis.

We go through three molecules from US20090099099A1, “Isoflavone Glycosides as Peroxisome Proliferator-Activated Receptor-alpha Modulator” (priority 2007, published 2009).

Read-outs that look alike come from different tables or passages of the source.

Turning to `O=c1c(-c2ccc(O)cc2)coc2cc(O[C@@H]3O[C@H](CO)[C@@H](O)[C@H](O)[C@H]3O)ccc12` [daidzin, reference compound], the “effect on glucose tolerance” value in data set [1] is listed as “impairs glucose tolerance”.

With `O=c1c(-c2ccc(O)cc2)coc2cc(O)ccc12` [daidzein], the “activation of PPAR-α” value in data set [2] is given as “activate PPAR-α”.

Regarding `O=c1c(-c2ccc(O)cc2)coc2c([C@@H]3O[C@H](CO)[C@@H](O)[C@H](O)[C@H]3O)c(O)ccc12` [puerarin, 4H-1-Benzopyran-4-one, 8-β-D-glucopyranosyl-7-hydroxy-3-(4-hydroxyphenyl)], in data set [1], the “effect on glucose tolerance” value is given as “improves glucose tolerance”. Further, the Effects result is “↓ the infarction size, ↓free fatty acids” in data set [3] (AMI patients (Xiao et al., 2004)); “Anti-angina, reducing both systolic” in data set [3] (Angina patients (Yang et al., 1990)); “Simulate the late phase of ischemic” in data set [3] (CHD patients (Xie et al., 2003)); “↓ oxidized-LDL, improve heart” in data set [3] (Chronic heart failure patients (Duan et al., 2000)); “Improve insulin resistance, and insulin” in data set [3] (Coronary heart disease (CHD) patients (Shi et al., 2002)); “↓ blood viscosity, improve” in data set [3] (Diabetic retinopathy patients (Ren et al., 2000)). Also, in data set [3] (Unstable angina (UA) patients (Luo and Zheng, 2001)), the Effects entry was “↓ platelet granule membrane protein”. The “absorption from the intestine” value in data set [4] is listed as “rapidly absorbed”. In addition, the “metabolism in the blood” value in data set [4] is listed as “mostly remains unmetabolized”. Also, in data set [5] (250 mg/Kg/day by gavage, 5-month period, n=8, P<0.001), the “body weights, treatment group vs control group (two-way ANOVA)” value is reported as “significantly different”. Further, the toxicity result in data set [5] (250 mg/Kg/day orally, 5 months, rats) is on record as “no apparent toxicity”. Moreover, in data set [5] (250 mg/Kg/day orally, over 5 months period, SHRSP male rats, normal chow diet), the “body weight less than the control rats in average” value amounted to 13%. The PPAR-α expression result in data set [6] is listed as “upregulated”.
